Paper PMC11239830, “Synthetic macrolides overcoming MLSBK-resistant pathogens” (Cell Discovery, 2024)
≈ marks a conversion by molar mass, not a printed value. Like-named read-outs stand apart in the source and are kept apart here.

How the values were obtained:
S. pneumoniae = test: MIC, broth microdilution; type: cell-based, Streptococcus pneumoniae
How it was run: (§1)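 Incubation ran for 16–20 h at 37 °C after setup per Clinical and Laboratory Standards Institute microdilution procedure. Growth was then observed to assign the MIC. Assays were replicated at least three times.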

S. pyogenes = test: MIC, broth microdilution; type: cell-based, Streptococcus pyogenes
How it was run: as §1

S. aureus = test: MIC, broth microdilution; type: cell-based, Staphylococcus aureus
How it was run: as §1

M. catarrhalis = test: MIC, broth microdilution; type: cell-based, Moraxella catarrhalis; details: Moraxella catarrhalis; M. catarrhalis 13L332, Ery-S; read-out: MIC
Protocol: MICs were determined by the microdilution method according to the Clinical and Laboratory Standards Institute guidelines. Briefly, the stock solution of compounds and the reference antibiotics were diluted 2-fold in sterile 96-well plates with cation-adjusted Mueller-Hinton broth, and mixed with CAMHB-containing bacteria to give a final inoculum of 5 × 10^5 CFU/mL for broth microdilution experiments. […] Finally, the 96-well plates were incubated at 37 °C for 16–20 h to observe and record the results. The lowest concentration at which no bacterial growth could be observed visually was identified as the MICs of the compounds. The assay for MICs was replicated at least three times.

[1] = test system: 15B196 S. aureus ribosomes (A2058-methylated); test: PURE in vitro translation inhibition assay; type: biochemical, Staphylococcus aureus; details: mean ± SD
Protocol: (§2) To validate the in vitro activity of our compounds, we employed an in vitro reconstituted E. coli Protein synthesis Using a Recombinant Elements (PURE) translation system, substituting E. coli ribosomes with the purified S. aureus ribosomes.
(§3) 5 μL of PURE reaction mix that translates a gene encoding the Nanoluc luciferase was set up in the presence or absence of tested compounds. Protein synthesis was initiated by incubating reactions at 37 °C for 60 min and stopped by placing on ice for 5 min. Luciferase activity was quantified using the Nano-Glo luciferase assay system and read on a GloMax 20/20 luminometer (Promega, USA). For each compound, the in vitro translation inhibition assay was performed in three biological triplicates over a range of concentrations from 0.001 μM to 1000 μM. A compound-free control was used to normalize luminescence measurements. The calculated luminescence percentages were plotted against compound concentrations on a semilog scale using GraphPad Prism.

WT S. aureus ribosomes = test: PURE in vitro translation inhibition assay; type: biochemical, Staphylococcus aureus; details: mean ± SD
Protocol: as §2, §3

[2] = CCK-8 assay for cytotoxicity; type: cell-based, human; details: human, HEK293T cells, HEK293T cell viability
Protocol: HepG2 cells (6 × 10^3) and HEK293T cells (4 × 10^3) were seeded into 96-well plates in 90 μL of DMEM medium containing 10% FBS per well. […] After overnight incubation, the test compound stock solution was diluted with DMEM medium containing 10% FBS to every target concentration, and 10 μL of each was added to each well. Three parallel experiments were set up for each compound. After incubation for 48 h, 10 μL of cell counting kit-8 (CCK-8) reagent was added to each well in sequence according to the manufacturer’s instructions. […] This experiment was independently repeated three times. The data were processed by GraphPad Prism.

[3] = test system: human ribosome (HEK293F whole-cell lysate); test: Mammalian cell-free in vitro translation assay; type: biochemical; details: human ribosomes, read-out: IC50, translation of Fluc mRNA
Protocol: For the in vitro translation assay, the whole-cell extract was derived from cultured HEK293F cells. The translation reactions were conducted in a total volume of 10 μL, comprising 4 μL of the HEK293F extract, 1 μL 10× Translation Buffer containing 160 mM HEPESs-KOH (pH 7.6), 100 mM Creatine phosphate, 1 mM Spermidine, 10 mM ATP, 1 mM GTP, 20 mM DTT, 800 ng/μL CKM, 600 mM KOAc, 30 mM Mg(OAc)2 and 200 μM Amino acids. The reaction mixture also included 2 U of RiboLock RNase inhibitor (ThermoFisher Scientific), 0.5 mM D-luciferin (Promega), 1 μL of either antibiotic solution or solvent (water or 10% DMSO), as specified, and 100 ng mRNA (added as a 1 μL water solution after pre-incubation of the reaction mixture with antibiotic for 5 min at 30 °C). Following the addition of mRNA, the mixtures were transferred to a pre-heated 96-well CELL CULTER PLATE (WHB), sealed with a PCR plate seal, and incubated in the CLARIOstar plate reader (BMG Labtech) at 37 °C with continuous luciferase activity measurement, following established procedures[66],[67]. Luciferase activity values were determined based on light intensities at 60 min.

[4] = Staphylococcus aureus, MRSA, MRSA (13)
[5] = Staphylococcus aureus, i-MLSB S. aureus (10)

`CC[C@H]1OC(=O)[C@H](C)[C@@H](OC(=O)NCCCOCCC#Cc2ccc3c(=O)c(C(=O)O)cn(C)c3c2)[C@H](C)[C@@H](O[C@@H]2O[C@H](C)C[C@H](N(C)C)[C@H]2O)[C@](C)(OC)C[C@@H](C)C(=O)[C@H](C)[C@H]2NC(=O)O[C@@]21C` [MCX-190] gave an MIC (S. pneumoniae; S. pneumoniae 07P390, c-ermB, listed as 95g) of 0.06 µg/mL (≈ 0.0619 µM), an MIC (S. pneumoniae; S. pneumoniae 21C315, Clinical, c-ermB) of 0.12 µg/mL (≈ 0.124 µM) and an MIC (S. pneumoniae; S. pneumoniae 21D016, Clinical, c-ermB, mef) of 0.5 µg/mL (≈ 0.516 µM). It also gave an MIC (S. pneumoniae; S. pneumoniae 21D020, Clinical, c-ermB, mef) of 0.25 µg/mL (≈ 0.258 µM), an MIC (S. pneumoniae; S. pneumoniae 21M277, Clinical, c-ermB) of 0.5 µg/mL (≈ 0.516 µM) and an MIC (S. pneumoniae; S. pneumoniae 21Q352, Clinical, i-MLSB) of 0.25 µg/mL (≈ 0.258 µM). For the same molecule, the MIC (S. pneumoniae; S. pneumoniae 21Q353, Clinical, i-MLSB) was 0.25 µg/mL (≈ 0.258 µM), the MIC (S. pneumoniae; S. pneumoniae 21W257, Clinical, c-ermB, mef) was 0.5 µg/mL (≈ 0.516 µM) and the MIC (S. pneumoniae; S. pneumoniae 21X435, Clinical) was 0.016 µg/mL (≈ 0.0165 µM). It also gave an MIC (S. pneumoniae; S. pneumoniae ATCC49619) of 0.016 µg/mL (≈ 0.0165 µM), an MIC (S. pneumoniae; S. pneumoniae ATCC49619, Ery-S, listed as 95g) of 0.016 µg/mL (≈ 0.0165 µM) and an MIC (S. pneumoniae; Streptococcus pneumoniae, ATCC49619, S. pneumoniae ATCC49619, Ery-S, read-out: MIC) of 0.03 µg/mL (≈ 0.031 µM). For the same molecule, the MIC (S. pneumoniae; Streptococcus pneumoniae, S. pneumoniae 05O173, c-ermB, mef, read-out: MIC) was 2 µg/mL (≈ 2.06 µM), the MIC (S. pneumoniae; Streptococcus pneumoniae, S. pneumoniae 07P390, c-ermB, read-out: MIC) was 0.12 µg/mL (≈ 0.124 µM) and the MIC (S. pneumoniae; Streptococcus pneumoniae, S. pneumoniae PU09, mef, read-out: MIC) was 0.06 µg/mL (≈ 0.0619 µM). The MIC (S. pyogenes; S. pyogenes 01-968, Clinical, i-ermB) was 0.03 µg/mL (≈ 0.031 µM), the MIC (S. pyogenes; S. pyogenes 12-207, Clinical, mef) was 0.5 µg/mL (≈ 0.516 µM) and the MIC (S. pyogenes; S. pyogenes 21C303, Clinical, c-ermB) was 1 µg/mL (≈ 1.03 µM). For the same molecule, the MIC (S. pyogenes; S. pyogenes 21D184, Clinical, c-ermB) was 1 µg/mL (≈ 1.03 µM), the MIC (S. pyogenes; S. pyogenes 21D199, Clinical, c-ermB) was 1 µg/mL (≈ 1.03 µM) and the MIC (S. pyogenes; S. pyogenes 21D200, Clinical, c-ermB) was 0.5 µg/mL (≈ 0.516 µM). The MIC (S. pyogenes; S. pyogenes 21K003, Clinical, mef) was 1 µg/mL (≈ 1.03 µM), the MIC (S. pyogenes; S. pyogenes 21M063, Clinical, c-ermB) was 0.5 µg/mL (≈ 0.516 µM) and the MIC (S. pyogenes; S. pyogenes 21W186, Clinical, c-ermTR) was 2 µg/mL (≈ 2.06 µM). The MIC (S. pyogenes; Streptococcus pyogenes, S. pyogenes 12-206, c-ermTR, read-out: MIC) was 0.12 µg/mL (≈ 0.124 µM), the MIC (S. aureus; S. aureus 15B196, Clinical, MRSA, c-ermB) was 8 µg/mL (≈ 8.25 µM) and the MIC (S. aureus; S. aureus 21B200, Clinical, MRSA, c-ermB) was 8 µg/mL (≈ 8.25 µM). For the same molecule, the MIC (S. aureus; S. aureus 21B207, Clinical, MRSA, c-ermB) was 8 µg/mL (≈ 8.25 µM), the MIC (S. aureus; S. aureus 21B212, Clinical, MSSA, i-ermC) was 0.25 µg/mL (≈ 0.258 µM) and the MIC (S. aureus; S. aureus 21C173, Clinical, MSSA, i-ermC) was 0.25 µg/mL (≈ 0.258 µM). For the same molecule, the MIC (S. aureus; S. aureus 21C174, Clinical, MSSA, c-ermB) was 1 µg/mL (≈ 1.03 µM), the MIC (S. aureus; S. aureus 21C187, Clinical, MRSA, i-ermA) was 0.25 µg/mL (≈ 0.258 µM) and the MIC (S. aureus; S. aureus 21D112, Clinical, MSSA, c-ermB) was 64 µg/mL (≈ 66 µM). For the same molecule, the MIC (S. aureus; S. aureus 21D115, Clinical, MSSA, i-ermC) was 0.5 µg/mL (≈ 0.516 µM), the MIC (S. aureus; S. aureus 21F198, Clinical, MRSA, c-ermB) was 8 µg/mL (≈ 8.25 µM) and the MIC (S. aureus; S. aureus 21F206, Clinical, MSSA, c-ermB) was 32 µg/mL (≈ 33 µM). The MIC (S. aureus; S. aureus 21F207, Clinical, MRSA, i-ermC) was 0.25 µg/mL (≈ 0.258 µM), the MIC (S. aureus; S. aureus 21K194, Clinical, MSSA, i-ermC) was 0.25 µg/mL (≈ 0.258 µM) and the MIC (S. aureus; S. aureus 21N354, Clinical, MRSA, c-ermB) was 8 µg/mL (≈ 8.25 µM). It also gave an MIC (S. aureus; S. aureus 21P191, Clinical, MSSA, c-ermC) of 64 µg/mL (≈ 66 µM), an MIC (S. aureus; S. aureus 21P404, Clinical, MSSA, i-ermC) of 0.5 µg/mL (≈ 0.516 µM) and an MIC (S. aureus; S. aureus 21P407, Clinical, MRSA, c-ermB) of 16 µg/mL (≈ 16.5 µM). For the same molecule, the MIC (S. aureus; S. aureus 21Q253, Clinical, MRSA, c-ermB) was 4 µg/mL (≈ 4.13 µM), the MIC (S. aureus; S. aureus 21R216, Clinical, MSSA, c-ermC) was 64 µg/mL (≈ 66 µM) and the MIC (S. aureus; S. aureus 21T141, Clinical, MRSA, c-ermB) was 4 µg/mL (≈ 4.13 µM). The MIC (S. aureus; S. aureus 21X388, Clinical, i-ermA (MRSA in Table S9, MSSA in Fig. 2a)) was 0.25 µg/mL (≈ 0.258 µM), the MIC (S. aureus; S. aureus 21Y223, Clinical, MRSA, i-ermC) was 0.5 µg/mL (≈ 0.516 µM) and the MIC (S. aureus; S. aureus ATCC29213) was 0.25 µg/mL (≈ 0.258 µM). For the same molecule, the MIC (S. aureus; S. aureus PU32, Clinical, MRSA, i-ermA) was 0.25 µg/mL (≈ 0.258 µM), the MIC50 (S. aureus; Staphylococcus aureus, All S. aureus (24)) was 1 µg/mL (≈ 1.03 µM) and the MIC50 (S. aureus; [4]) was 4 µg/mL (≈ 4.13 µM). The MIC90 (S. aureus; [4]) was 8 µg/mL (≈ 8.25 µM), the MIC50 (S. aureus; Staphylococcus aureus, MSSA, MSSA (10)) was 0.5 µg/mL (≈ 0.516 µM) and the MIC (S. aureus; Staphylococcus aureus, S. aureus 15B196, c-ermB, read-out: MIC) was 8 µg/mL (≈ 8.25 µM). The MIC (S. aureus; Staphylococcus aureus, S. aureus PU32, i-ermA, read-out: MIC) was 0.5 µg/mL (≈ 0.516 µM), the MIC50 (S. aureus; Staphylococcus aureus, c-MLSB (constitutive) S. aureus (13)) was 8 µg/mL (≈ 8.25 µM) and the MIC90 (S. aureus; Staphylococcus aureus, c-MLSB S. aureus (13)) was 64 µg/mL (≈ 66 µM). For the same molecule, the MIC50 (S. aureus; [5]) was 0.25 µg/mL (≈ 0.258 µM), the MIC90 (S. aureus; [5]) was 0.5 µg/mL (≈ 0.516 µM) and the MIC90 (S. aureus; Staphylococcus aureus, MSSA (10)) was 64 µg/mL (≈ 66 µM). The MIC (M. catarrhalis) was 0.25 µg/mL (≈ 0.258 µM), the IC50 [1] was 460 ± 230 nM and the IC50 (WT S. aureus ribosomes) was 380 ± 100 nM. The CC50 at 48 h [2] was > 100000 nM and the IC50 [3] was > 100000 nM.
